Measured values published in patent US20250025442A1, “BCAA-Lowering Compounds for Prevention and/or Treatment of Alzheimer's Disease and Related Disorders” (Texas Tech University System, priority 2020, published 2025).

Key:
[1] = test system: BCKDH kinase; conditions: cited from earlier work
[2] = test system: plasma BCAAs; conditions: mice; cited from earlier work
[3] = test system: 5xFAD mice; assay: BT2 daily ip injection for one month in 5xFAD mice; assay type: in vivo
Text: These transgenic mice develop amyloid plaques and neuroinflammation at as early as 1.5-2 months of age^7, thus allowing the inventors to investigate the role of BCAAs in AD-related brain pathology when they are young. […] Next, the inventors examined amyloid and Tau pathology in the cortex.

[4] = in hepatocytes; cited from earlier work
[5] = CD-1 mice, in vivo pharmacokinetics study; cited from earlier work

Compound	inhibit BCKDH kinase [1]	plasma BCAAs [2]	increase of tyrosine hydroxylase (TH) protein level ([3]; 5xFAD mice, p=0.07) [%]	blood glucose ([3]; BT2-treated vs vehicle-treated 5xFAD mice)	Aβ-42 level ([3]; cortex, 5xFAD mice)	elevated Aβ-degrading enzyme IDE ([3]; cortex, 5xFAD mice) [%]	increase of DA ([3]; cortex, BT2-treated 5xFAD mice) [%]	increase of DOPAC ([3]; cortex, BT2-treated 5xFAD mice) [%]	GSK3β ([3]; cortex, after BT2 treatment)	BACE1 (β-secretase) ([3]; hippocampus, 5xFAD mice)	NE level ([3]; hippocampus, 5xFAD mice)	mRNA of NF-κB (inflammation) ([3]; hippocampus, 5xFAD mice)	mRNA of PERK (ER stress) ([3]; hippocampus, 5xFAD mice)	higher 5-HT ([3]; hippocampus, after BT2 treatment, p<0.05) [%]	higher DA ([3]; hippocampus, after BT2 treatment, p=0.08) [%]	Half-life [4] [h]	clearance rate [5] [mL/min]
O=C(O)c1sc2cc(Cl)ccc2c1Cl [BT2, 3,6-dichlorobenzo[b]thiophene-2-carboxylic acid]	effectively inhibit	lowering plasma BCAAs	~400	markedly decrease	completely rescued	70	180	300	significantly reduced	markedly lowered	fully restored	decreased	decreased	50	40	–	–
(S)-α-chloro-phenylpropionic acid [(S)-CPP]	effectively inhibit	lowering plasma BCAAs	–	–	–	–	–	–	–	–	–	–	–	–	–	~7	0.113
